Data on one compound can be found in patent US20220031797A1, “PHARMACEUTICAL COMPOSITIONS CONTAINING HYALURONIC ACID AND CARNOSINE AND RELATIVE USE” (FIDIA FARMACEUTICI S.P.A., priority 2017, published 2022).

In this experiment the test system is Monosodium Iodoacetate (MIA) Osteoarthritis in Rats. The experiment in a line: MIA-induced osteoarthritis in rats, oral treatment, histological evaluation (modified Mankin score). It counts as in vivo. The note with it: oral every 24 hours day 3-20, conjugate of Example 2 (35% mol/mol) 88.5 mg/kg, mixture 16.2 mg/kg carnosine + 72.3 mg/kg HA, naproxen 10 mg/kg, day 21, versus MIA-control, FIG. 7. On the procedure: OA was induced in the posterior knee joints of the rats being tested, by the intra-articular injection of MIA: 25 μl of saline containing 1 mg/kg of MIA were injected into the joint (knee) of the right paw of each animal (under treatment) through the infrapatal ligament, whereas the left joint received an equal volume of saline 0.9% (Sagar D R et al, Ann. Rheum. Dis., 2013, 73: 1558-1565).
Male Sprague-Dawley rats, of about 230 g each, were used, 20 rats per group.
Group 1: MIA-control: the animals were treated by MIA induction and subsequently with distilled water administered orally every 24 hours from the 3rd day after MIA until the 20th day, end of the experimentation.
Group 2: MIA+HA/carnosine conjugate: the animals were treated by MIA induction and subsequently with the above-mentioned conjugate every 24 hours from the 3rd day after MIA until the 20th day. The conjugate used for the experimentation was prepared according to Example 2, it was then derivatized at 35% mol/mol, the dose, administered orally, was equal to 88.5 mg/kg of conjugate (16.2 mg of carnosine and 72.3 mg of HA).
Group 3: MIA+HA/carnosine mixture: the animals were treated by MIA induction and subsequently with HA/carnosine every 24 hours starting from the 3rd day after MIA up to the 20th day. […]

Turning to `COc1ccc2cc([C@H](C)C(=O)O)ccc2c1` [naproxen], the “Histological evaluation (modified Mankin Histological score 0-12; histological damage and cartilage degeneration)” value is “totally comparable to the effect elicited by naproxen”.
